# Results reported in paper PMC4255499 (Frontiers in Physiology, 2014).
# Target: T1, α1-microglobulin (A1M) (Homo sapiens, UniProt P02760)
# T1 construct: gene AMBP; Recombinant human A1M with an N-terminal His8-tag (tgA1M)
# T1 sequence (P02760 20-203): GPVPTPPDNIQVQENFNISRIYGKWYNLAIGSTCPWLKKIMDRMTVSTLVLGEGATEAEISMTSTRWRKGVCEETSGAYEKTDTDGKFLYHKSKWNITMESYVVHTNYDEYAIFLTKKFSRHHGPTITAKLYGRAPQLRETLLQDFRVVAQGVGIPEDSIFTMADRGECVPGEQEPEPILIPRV
# Test: SPR (tgA1M captured by anti-His antibody, […] binding model); also UV/Vis titration, induced CD, native PAGE shift
smiles,measurement,value
C=CC1=C(C)C2=Cc3c(C=C)c(C)c4[n]3[Fe][n]3c(c(C)c(CCC(=O)O)c3=CC3=NC(=C4)C(C)=C3CCC(=O)O)=CC1=N2 [heme],Kd,7.02 µM
